Reference: publication PMC8805583, “Discovery of Herbacetin as a Novel SGK1 Inhibitor to Alleviate Myocardial Hypertrophy” (Advanced Science, 2021)
pKd: −log10 of the molar value.

Legend:
SGK1 [1] = molecular target: T1, SGK1 (Homo sapiens, UniProt O00141); experiment: KINOMEscan direct binding assay (Eurofins Discovery)
T1 sequence (O00141 1-431): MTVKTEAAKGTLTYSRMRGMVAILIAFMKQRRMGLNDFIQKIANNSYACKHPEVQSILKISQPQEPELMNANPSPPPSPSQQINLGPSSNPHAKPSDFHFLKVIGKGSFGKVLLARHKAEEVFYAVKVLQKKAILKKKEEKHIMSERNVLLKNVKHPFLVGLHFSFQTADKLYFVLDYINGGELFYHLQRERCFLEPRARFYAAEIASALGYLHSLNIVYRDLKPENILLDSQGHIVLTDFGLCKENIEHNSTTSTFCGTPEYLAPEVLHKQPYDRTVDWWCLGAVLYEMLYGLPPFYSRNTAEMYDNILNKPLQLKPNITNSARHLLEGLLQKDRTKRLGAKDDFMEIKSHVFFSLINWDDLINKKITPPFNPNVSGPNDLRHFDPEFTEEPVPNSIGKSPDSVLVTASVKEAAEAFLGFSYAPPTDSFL
From the text: To identify active compounds with SGK1 inhibitory activity from Ext.R, a novel mass‐spectrometry based kinase inhibitory assay was developed. A polypeptide sequence ([…], m/z: 618.6) derived from glycogen Synthase Kinase‐3(GSK3), a known substrate of SGK1, was optimized and synthesized. We subsequently used liquid chromatography coupled with mass spectrometry (LC/MS) to detect and quantify its phosphorylation level ([…](p)FAE, m/z:658.7) (Figure 3A).^[ [26] ^] Basal level SGK1 was supplemented to each well, and the peak area of phosphorylation was measured in the presence or absence of testing compounds. […] After investigating the major chemical constituents in Ext.R (Table S3, Supporting Information), a set of compounds in Ext.R were subsequently screened for their impacts on SGK1 activity. […] The direct interaction between HBT and SGK1 was further verified by temperature‐ and dose‐dependent cellular thermal shift assays (Figure 3E,F). We further performed a direct binding assay of HBT to SGK1 by KINOMEscan assay (Eurofins Discovery).
The initial crystal structures of SGK1 (PDB entry: 3HDN, 3HDM, and 2R5T) were obtained from the Protein Data Bank (PDB). The prepared inhibitors were then docked by Glide with the extra precision (XP) scoring mode to estimate the binding affinity for each protein–ligand complex. The detailed process of docking has been described previously.^[ [46] ^] […]

[2] = molecular target: T2, cGMP-dependent type II protein kinase (PRKG2) (Homo sapiens, UniProt Q13237); experiment: KinaseProfiler Assay, AGC kinase panel; format: biochemical; details: HBT 10 µmol; normalized by positive inhibitors
T2 construct: purchased Eurofins Discovery (KinaseProfiler Service)
T2 sequence (Q13237 1-762): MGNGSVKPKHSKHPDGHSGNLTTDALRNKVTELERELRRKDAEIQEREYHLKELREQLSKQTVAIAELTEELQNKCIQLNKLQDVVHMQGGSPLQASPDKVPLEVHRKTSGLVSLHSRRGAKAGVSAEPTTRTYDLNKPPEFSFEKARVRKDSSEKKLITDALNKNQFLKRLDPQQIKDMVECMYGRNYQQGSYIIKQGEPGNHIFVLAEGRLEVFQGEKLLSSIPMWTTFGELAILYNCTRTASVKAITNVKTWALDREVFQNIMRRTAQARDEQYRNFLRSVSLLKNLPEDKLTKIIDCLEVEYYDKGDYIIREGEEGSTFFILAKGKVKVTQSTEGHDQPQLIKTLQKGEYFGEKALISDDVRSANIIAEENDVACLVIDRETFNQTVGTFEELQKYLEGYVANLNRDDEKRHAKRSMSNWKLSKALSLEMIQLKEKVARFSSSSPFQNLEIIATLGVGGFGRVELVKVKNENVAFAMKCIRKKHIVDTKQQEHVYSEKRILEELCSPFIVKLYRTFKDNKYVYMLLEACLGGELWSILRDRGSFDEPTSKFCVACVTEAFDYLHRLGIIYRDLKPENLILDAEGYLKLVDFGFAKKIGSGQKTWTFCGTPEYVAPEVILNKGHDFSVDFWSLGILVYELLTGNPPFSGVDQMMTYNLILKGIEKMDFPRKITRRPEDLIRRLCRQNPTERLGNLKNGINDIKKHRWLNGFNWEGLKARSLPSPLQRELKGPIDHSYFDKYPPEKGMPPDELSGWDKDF
From the text: (§1) 20 structurally related flavonoids of HBT were collected, which differ in the number and position of —OH groups, and examined for their effects on SGK1 activity. Based on the docking prediction, the —OH group at the C‐4’ position of HBT was required for the interaction with the key SGK1 residue D177. Therefore, the 20 flavonoids were divided into two classes according to the presence or absence of an —OH group at C‐4’ (Figure 4B). At both tested concentrations, flavonoids with an —OH group at C‐4’ (class A) inhibited SGK1 more than those without an —OH group at C‐4’ (class B) (Figure 4C). The IC50 of each compound is listed in Figure 4D; and Figure S6 (Supporting Information). […] Conversely, the absence of an ‐OH group at C‐8 led to a greater than 10‐fold reduction in flavonoid SGK1 inhibitory activity, as shown by the performance of A1 or A4. […] The inhibitory activity of HBT (10 µmol) against 28 human AGC kinases was tested by KinaseProfiler Assay (Eurofins Discovery). The percentage of HBT's inhibitory activity against each kinase was normalized by the respective positive inhibitors of AGC kinases.
(§2) The initial crystal structures of SGK1 (PDB entry: 3HDN, 3HDM, and 2R5T) were obtained from the Protein Data Bank (PDB). The prepared inhibitors were then docked by Glide with the extra precision (XP) scoring mode to estimate the binding affinity for each protein–ligand complex. The detailed process of docking has been described previously.^[ [46] ^] HEK293T cells were transfected with SGK1 mutant plasmids. After 24 h, cells were lysed and immunoprecipitated with anti‐FLAG antibody and beads. Immune complexes were washed with kinase buffer and incubated in kinase buffer with substrate peptide for 1 h at 30 ℃ followed by LC/MS measurement as described above. KINOMEscan Profiling Service and KinaseProfiler Service Assay were provided by Eurofins Discovery.

[3] = molecular target: T3, catalytic subunit C-beta of PKA (PKAcβ) (Homo sapiens, UniProt P22694); experiment: KinaseProfiler Assay, AGC kinase panel; format: biochemical; details: HBT 10 µmol
T3 construct: purchased Eurofins Discovery (KinaseProfiler Service)
From the text: as §1, §2

SGK1 [4] = molecular target: T1, SGK1; experiment: KinaseProfiler Assay, AGC kinase panel; format: biochemical; parameters: purchased Eurofins Discovery (KinaseProfiler Service); details: HBT 10 µmol; normalized by positive inhibitors
From the text: as §1
The initial crystal structures of SGK1 (PDB entry: 3HDN, 3HDM, and 2R5T) were obtained from the Protein Data Bank (PDB). The prepared inhibitors were then docked by Glide with the extra precision (XP) scoring mode to estimate the binding affinity for each protein–ligand complex. […]

Compound: O=c1c(O)c(-c2ccc(O)cc2)oc2c(O)c(O)cc(O)c12 [HBT, herbacetin]
- pKd (SGK1 [1]; KINOMEscan, read-out: binding constants (Kds) for SGK1): 6.08
- Kd fold lower than EMD638683 (SGK1 [1]; same KINOMEscan assay): 14 fold
- inhibitory activity on PRKG2 [2]: 45%
- inhibitory effect on PKAcβ [3]: high inhibitory effects
- inhibitory activity on SGK1 (SGK1 [4]): 95%
